Laboratory results from patent US10093713B2, “GIP-GLP-1 dual agonist compounds and methods” (priority 2013, dated 2018).
Where two headings read alike, the source gives them in different places. *1 amine or outer side, *2 acyl side, *3 side chain or, on linkers, in order; H or OH if unused. Where a SMILES comes first, the peptide text is derived from it. Side-chain parts run from the residue outwards. [ ]: non-standard residue; d: D form. The star is where a group is joined. C18 diacid = O=C(O)CCCCCCCCCCCCCCCCC(=O)*; γGlu = O=C(O)[C@H](CCC(=O)[*:2])N[*:1]; AEEA = NCCOCCOCC(=O)O; Aib = CC(C)(N)C(=O)O

What was measured:
[1] = target: T1, human GLP-1 R (Homo sapiens, UniProt P43220); experiment: Human GLP-1 receptor (GLP-1 R) activity assay, cAMP induction (AlphaScreen) in HEK293 cells; assay type: cell-based
T1 construct: expressed in transfected cells
T1 sequence (P43220 24-463): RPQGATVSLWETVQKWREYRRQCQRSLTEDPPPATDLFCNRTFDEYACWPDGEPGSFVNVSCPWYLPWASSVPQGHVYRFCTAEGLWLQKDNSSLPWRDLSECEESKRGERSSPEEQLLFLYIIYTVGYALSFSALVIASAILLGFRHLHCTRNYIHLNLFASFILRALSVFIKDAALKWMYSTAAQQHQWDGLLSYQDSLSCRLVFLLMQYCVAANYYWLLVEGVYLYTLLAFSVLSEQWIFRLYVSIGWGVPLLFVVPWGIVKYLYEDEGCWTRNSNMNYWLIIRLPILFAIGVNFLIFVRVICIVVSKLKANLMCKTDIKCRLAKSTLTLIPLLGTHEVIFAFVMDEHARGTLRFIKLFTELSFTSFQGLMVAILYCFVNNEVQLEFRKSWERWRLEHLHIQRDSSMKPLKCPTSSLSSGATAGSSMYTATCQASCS
Outline: (§1)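 Stable HEK293 clones expressing human GIP R or GLP-1 R, seeded 1 day before; cells washed in Tyrode's buffer (10 mM HEPES, pH 7.4), stimulated, then lysed. cAMP measured by AlphaScreen bead competition (1 h, room temperature, dark). EC50 = concentration giving half-maximal cAMP elevation, from curves of absolute cAMP (nM) vs log concentration.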

[2] = target: T2, human GIP R (Homo sapiens, UniProt P48546); experiment: Human GIP receptor (GIP R) activity assay, cAMP induction (AlphaScreen) in HEK293 cells; assay type: cell-based
T2 construct: expressed in transfected cells
T2 sequence (P48546 22-466): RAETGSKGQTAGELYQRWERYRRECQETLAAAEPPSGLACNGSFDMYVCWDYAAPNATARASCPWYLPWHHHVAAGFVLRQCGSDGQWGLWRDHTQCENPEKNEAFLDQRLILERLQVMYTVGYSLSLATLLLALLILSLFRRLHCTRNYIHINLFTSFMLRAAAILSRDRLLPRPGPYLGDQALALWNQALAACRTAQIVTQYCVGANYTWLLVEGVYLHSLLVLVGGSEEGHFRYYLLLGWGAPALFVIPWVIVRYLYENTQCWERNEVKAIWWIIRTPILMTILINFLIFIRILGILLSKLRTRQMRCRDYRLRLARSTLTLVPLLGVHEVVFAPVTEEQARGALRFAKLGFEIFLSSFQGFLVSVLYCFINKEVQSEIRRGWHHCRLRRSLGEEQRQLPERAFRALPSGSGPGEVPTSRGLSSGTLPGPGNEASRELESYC
Outline: as §1

[3] = Table 2a, secondary assay study, read-out: hGLP1-R cAMP EC50 average value
[4] = Table 2a, secondary assay study, read-out: hGIP-R cAMP EC50 average value
[5] = Table 2, HEK293 cells expressing human GLP-1 R, read-out: hGLP1-R cAMP EC50 average value
[6] = Table 2, HEK293 cells expressing human GIP R, read-out: hGIP-R cAMP EC50 average value
[7] = Table 3, most comprehensive data, read-out: hGIP-R cAMP EC50 average value

Row | Structure (SMILES) | EC50 [1, 3] [nM] | EC50 [2, 4] [nM] | EC50 [1, 5] [nM] | EC50 [2, 6] [nM] | EC50 [2, 7] [nM] | also measured
1 | CC[C@H](C)[C@H](NC(=O)[C@H](CO)NC(=O)[C@H](Cc1ccc(O)cc1)NC(=O)[C@H](CC(=O)O)NC(=O)[C@H](CO)NC(=O)[C@@H](NC(=O)[C@H](Cc1ccccc1)NC(=O)[C@@H](NC(=O)CNC(=O)[C@H](CCC(=O)O)NC(=O)C(C)(C)NC(=O)[C@@H](N)Cc1ccc(O)cc1)[C@@H](C)O)[C@@H](C)O)C(=O)N[C@@H](Cc1ccc(O)cc1)C(=O)N[C@@H](CC(C)C)C(=O)N[C@@H](CCC(=O)O)C(=O)N[C@@H](CCCCN)C(=O)N[C@@H](CCCCNC(=O)COCCOCCNC(=O)COCCOCCNC(=O)CC[C@H](NC(=O)CCCCCCCCCCCCCCCCC(=O)O)C(=O)O)C(=O)N[C@@H](C)C(=O)N[C@@H](CCC(N)=O)C(=O)N[C@@H](CCCNC(=N)N)C(=O)N[C@@H](C)C(=O)N[C@@H](Cc1ccccc1)C(=O)N[C@H](C(=O)N[C@@H](CCC(=O)O)C(=O)N[C@@H](Cc1c[nH]c2ccccc12)C(=O)N[C@@H](CC(C)C)C(=O)N[C@@H](CC(C)C)C(=O)N[C@@H](CCCNC(=N)N)C(=O)N[C@@H](C)C(N)=O)C(C)C [Compound 19] (H-Y[Aib]EGTFTSDYSIYLEKK([AEEA-AEEA-γGlu-C18 diacid])AQRAFVEWLLRA-NH2) | 0.022 | 0.014 | – | – | – | –
2 | CC[C@H](C)[C@H](NC(=O)[C@H](CO)NC(=O)[C@H](CC(C)C)NC(=O)[C@H](CC(=O)O)NC(=O)[C@H](CO)NC(=O)[C@@H](NC(=O)[C@H](Cc1ccccc1)NC(=O)[C@@H](NC(=O)CNC(=O)[C@H](CCC(=O)O)NC(=O)C(C)(C)NC(=O)[C@@H](N)Cc1ccc(O)cc1)[C@@H](C)O)[C@@H](C)O)C(=O)N[C@@H](C)C(=O)N[C@@H](CC(C)C)C(=O)N[C@@H](CC(=O)O)C(=O)N[C@@H](CCCCN)C(=O)N[C@@H](CCCCNC(=O)COCCOCCNC(=O)COCCOCCNC(=O)CC[C@H](NC(=O)CCCCCCCCCCCCCCCCC(=O)O)C(=O)O)C(=O)N[C@@H](C)C(=O)N[C@@H](CCC(N)=O)C(=O)N[C@@H](CCCNC(=N)N)C(=O)N[C@@H](C)C(=O)N[C@@H](Cc1ccccc1)C(=O)N[C@H](C(=O)N[C@@H](CC(N)=O)C(=O)N[C@@H](Cc1c[nH]c2ccccc12)C(=O)N[C@@H](CC(C)C)C(=O)N[C@H](C(=O)N[C@@H](C)C(=O)NC(C)(C)C(=O)N[C@@H](CCCCN)C(N)=O)C(C)C)C(C)C [Compound 20] | – | – | – | – | – | EC50 [1]: 0.011 nM; EC50 ([2]; hGIP-R cAMP EC50 average value, Table 2, HEK293 cells expressing human GIP R): 0.0097 nM
3 | CC[C@H](C)[C@H](NC(=O)[C@H](CO)NC(=O)[C@H](CC(C)C)NC(=O)[C@H](CC(=O)O)NC(=O)[C@H](CO)NC(=O)[C@@H](NC(=O)[C@H](Cc1ccccc1)NC(=O)[C@@H](NC(=O)CNC(=O)[C@H](CCC(=O)O)NC(=O)C(C)(C)NC(=O)[C@@H](N)Cc1ccc(O)cc1)[C@@H](C)O)[C@@H](C)O)C(=O)N[C@@H](C)C(=O)N[C@@H](CC(C)C)C(=O)N[C@@H](CC(=O)O)C(=O)N[C@@H](CCCCN)C(=O)N[C@@H](CCCCNC(=O)COCCOCCNC(=O)COCCOCCNC(=O)CC[C@H](NC(=O)CCCCCCCCCCCCCCCCC(=O)O)C(=O)O)C(=O)N[C@@H](C)C(=O)N[C@@H](CCC(N)=O)C(=O)N[C@@H](CCCNC(=N)N)C(=O)N[C@@H](C)C(=O)N[C@@H](Cc1ccccc1)C(=O)N[C@H](C(=O)N[C@@H](CC(N)=O)C(=O)N[C@@H](Cc1c[nH]c2ccccc12)C(=O)N[C@@H](CC(C)C)C(=O)N[C@H](C(=O)N[C@@H](C)C(=O)NC(C)(C)C(=O)N[C@@H](CCCCN)C(N)=O)C(C)C)C(C)C [Compound 21] | 0.01 | 0.01 | – | – | – | –
4 | CC[C@H](C)[C@H](NC(=O)[C@H](CO)NC(=O)[C@H](Cc1ccc(O)cc1)NC(=O)[C@H](CC(=O)O)NC(=O)[C@H](CO)NC(=O)[C@@H](NC(=O)[C@H](Cc1ccccc1)NC(=O)[C@@H](NC(=O)CNC(=O)[C@H](CCC(=O)O)NC(=O)C(C)(C)NC(=O)[C@@H](N)Cc1ccc(O)cc1)[C@@H](C)O)[C@@H](C)O)C(=O)N[C@@H](C)C(=O)N[C@@H](CC(C)C)C(=O)N[C@@H](CC(=O)O)C(=O)N[C@@H](CCCCN)C(=O)N[C@@H](CCCCNC(=O)COCCOCCNC(=O)COCCOCCNC(=O)CC[C@H](NC(=O)CCCCCCCCCCCCCCCCC(=O)O)C(=O)O)C(=O)N[C@@H](C)C(=O)N[C@@H](CCC(N)=O)C(=O)N[C@@H](CCCNC(=N)N)C(=O)N[C@@H](C)C(=O)N[C@@H](Cc1ccccc1)C(=O)N[C@H](C(=O)N[C@@H](CCC(=O)O)C(=O)N[C@@H](Cc1c[nH]c2ccccc12)C(=O)N[C@@H](CC(C)C)C(=O)N[C@H](C(=O)N[C@@H](C)C(=O)NC(C)(C)C(=O)N[C@@H](CCCCN)C(N)=O)C(C)C)C(C)C [Compound 21] (H-Y[Aib]EGTFTSDYSIALDKK([AEEA-AEEA-γGlu-C18 diacid])AQRAFVEWLVA[Aib]K-NH2) | – | – | 0.011 | 0.0068 | 0.007 | –
5 | CC[C@H](C)[C@H](NC(=O)[C@H](CO)NC(=O)[C@H](Cc1ccc(O)cc1)NC(=O)[C@H](CC(=O)O)NC(=O)[C@H](CO)NC(=O)[C@@H](NC(=O)[C@H](Cc1ccccc1)NC(=O)[C@@H](NC(=O)CNC(=O)[C@H](CCC(=O)O)NC(=O)C(C)(C)NC(=O)[C@@H](N)Cc1ccc(O)cc1)[C@@H](C)O)[C@@H](C)O)C(=O)N[C@@H](C)C(=O)N[C@@H](CC(C)C)C(=O)N[C@@H](CCC(=O)O)C(=O)N[C@@H](CCCCN)C(=O)N[C@@H](CCCCNC(=O)COCCOCCNC(=O)COCCOCCNC(=O)CC[C@H](NC(=O)CCCCCCCCCCCCCCCCC(=O)O)C(=O)O)C(=O)N[C@@H](C)C(=O)N[C@@H](CCC(N)=O)C(=O)N[C@@H](CCCNC(=N)N)C(=O)N[C@@H](C)C(=O)N[C@@H](Cc1ccccc1)C(=O)N[C@H](C(=O)N[C@@H](CCC(=O)O)C(=O)N[C@@H](Cc1c[nH]c2ccccc12)C(=O)N[C@@H](CC(C)C)C(=O)N[C@@H](CCC(=O)O)C(=O)N[C@@H](C)C(=O)N[C@@H](CCC(N)=O)C(=O)NCC(=O)N1CCC[C@H]1C(=O)N[C@@H](CO)C(=O)N[C@@H](CO)C(=O)NCC(=O)N[C@@H](C)C(=O)N1CCC[C@H]1C(=O)N1CCC[C@H]1C(=O)N1CCC[C@H]1C(=O)N[C@@H](CO)C(N)=O)C(C)C [Compound 22] (H-Y[Aib]EGTFTSDYSIALEKK([AEEA-AEEA-γGlu-C18 diacid])AQRAFVEWLEAQGPSSGAPPPS-NH2) | – | – | 0.061 | 0.06 | 0.06 | EC50 ([1]; Table 3, most comprehensive data, read-out: hGLP-1-R cAMP EC50 average value): 0.061 nM
6 | CC[C@H](C)[C@H](NC(=O)[C@H](CO)NC(=O)[C@H](Cc1ccc(O)cc1)NC(=O)[C@H](CC(=O)O)NC(=O)[C@H](CO)NC(=O)[C@@H](NC(=O)[C@H](Cc1ccccc1)NC(=O)[C@@H](NC(=O)CNC(=O)[C@H](CCC(=O)O)NC(=O)C(C)(C)NC(=O)[C@@H](N)Cc1ccc(O)cc1)[C@@H](C)O)[C@@H](C)O)C(=O)N[C@@H](C)C(=O)N[C@@H](CC(C)C)C(=O)N[C@@H](CCC(=O)O)C(=O)N[C@@H](CCCCN)C(=O)N[C@@H](CCCCNC(=O)COCCOCCNC(=O)COCCOCCNC(=O)CC[C@H](NC(=O)CCCCCCCCCCCCCCCCC(=O)O)C(=O)O)C(=O)N[C@@H](C)C(=O)N[C@@H](CCC(N)=O)C(=O)N[C@@H](CCCNC(=N)N)C(=O)N[C@@H](C)C(=O)N[C@@H](Cc1ccccc1)C(=O)N[C@H](C(=O)N[C@@H](CCC(=O)O)C(=O)N[C@@H](Cc1c[nH]c2ccccc12)C(=O)N[C@@H](CC(C)C)C(=O)N[C@@H](CCC(=O)O)C(=O)N[C@@H](C)C(=O)N[C@@H](CCC(N)=O)C(=O)N[C@@H](CCCCN)C(N)=O)C(C)C [Compound 23] (H-Y[Aib]EGTFTSDYSIALEKK([AEEA-AEEA-γGlu-C18 diacid])AQRAFVEWLEAQK-NH2) | – | – | 0.044 | 0.2 | 0.2 | –
